Converted amounts (≈) assume the structure as drawn.
Tested on: Pseudomonas aeruginosa
Test: Antibacterial activity against Pseudomonas aeruginosa ATCC 27853 by micro broth dilution method
Assay type: functional
Settings: not given

SMILES	MIC [µg/mL]
CCn1cc(C(=O)O)c(=O)c2cc(F)c(N3CCN(Cc4nc5ccccc5n4Cc4ccccc4F)CC3)cc21	512 (≈ 918 µM)
CCCCCCCCn1c(CN2CCN(c3cc4c(cc3F)c(=O)c(C(=O)O)cn4CC)CC2)nc2ccccc21	2 (≈ 3.56 µM)
CCn1cc(C(=O)O)c(=O)c2cc(F)c(N3CCN(Cc4nc5ccccc5n4Cc4cccc(F)c4)CC3)cc21	8 (≈ 14.3 µM)
O=C(O)c1cn(C2CC2)c2cc(N3CCN(CNc4nc5ccccc5[nH]4)CC3)c(F)cc2c1=O	0.5 (≈ 1.05 µM)

Tested on: Cyberlindnera jadinii
Test: Antifungal activity against Candida utilis ATCC 9950 after 24 hrs by micro broth dilution method
Assay type: functional
Settings: Williopsis jadinii, ATCC 9950, 24 h

SMILES	MIC80 [µg/mL]
CCn1cc(C(=O)O)c(=O)c2cc(F)c(N3CCN(Cc4nc5ccccc5n4Cc4ccccc4F)CC3)cc21	512 (≈ 918 µM)
CCCCCCCCn1c(CN2CCN(c3cc4c(cc3F)c(=O)c(C(=O)O)cn4CC)CC2)nc2ccccc21	2 (≈ 3.56 µM)
CCn1cc(C(=O)O)c(=O)c2cc(F)c(N3CCN(Cc4nc5ccccc5n4Cc4cccc(F)c4)CC3)cc21	32 (≈ 57.4 µM)
O=C(O)c1cn(C2CC2)c2cc(N3CCN(CNc4nc5ccccc5[nH]4)CC3)c(F)cc2c1=O	8 (≈ 16.8 µM)

Tested on: Staphylococcus aureus
Test: Antibacterial activity against Staphylococcus aureus ATCC 25923 by micro broth dilution method
Assay type: functional
Settings: not given

SMILES	MIC [µg/mL]
CCn1cc(C(=O)O)c(=O)c2cc(F)c(N3CCN(Cc4nc5ccccc5n4Cc4ccccc4F)CC3)cc21	512 (≈ 918 µM)
CCCCCCCCn1c(CN2CCN(c3cc4c(cc3F)c(=O)c(C(=O)O)cn4CC)CC2)nc2ccccc21	32 (≈ 57 µM)
CCn1cc(C(=O)O)c(=O)c2cc(F)c(N3CCN(Cc4nc5ccccc5n4Cc4cccc(F)c4)CC3)cc21	128 (≈ 230 µM)
O=C(O)c1cn(C2CC2)c2cc(N3CCN(CNc4nc5ccccc5[nH]4)CC3)c(F)cc2c1=O	1 (≈ 2.1 µM)

Tested on: Aspergillus flavus
Test: Antifungal activity against Aspergillus flavus ATCC 204304 after 24 hrs by micro broth dilution method
Assay type: functional
Settings: ATCC 204304, 24 h

SMILES	MIC80 [µg/mL]
CCn1cc(C(=O)O)c(=O)c2cc(F)c(N3CCN(Cc4nc5ccccc5n4Cc4ccccc4F)CC3)cc21	512 (≈ 918 µM)
CCCCCCCCn1c(CN2CCN(c3cc4c(cc3F)c(=O)c(C(=O)O)cn4CC)CC2)nc2ccccc21	0.5 (≈ 0.89 µM)
CCn1cc(C(=O)O)c(=O)c2cc(F)c(N3CCN(Cc4nc5ccccc5n4Cc4cccc(F)c4)CC3)cc21	2 (≈ 3.59 µM)
O=C(O)c1cn(C2CC2)c2cc(N3CCN(CNc4nc5ccccc5[nH]4)CC3)c(F)cc2c1=O	16 (≈ 33.6 µM)

Tested on: not listed separately
Test: Antibacterial activity against Bacillus proteus ATCC 13315 by micro broth dilution method
Assay type: functional
Settings: not given

SMILES	MIC [µg/mL]
CCn1cc(C(=O)O)c(=O)c2cc(F)c(N3CCN(Cc4nc5ccccc5n4Cc4ccccc4F)CC3)cc21	512 (≈ 918 µM)
CCCCCCCCn1c(CN2CCN(c3cc4c(cc3F)c(=O)c(C(=O)O)cn4CC)CC2)nc2ccccc21	4 (≈ 7.12 µM)
CCn1cc(C(=O)O)c(=O)c2cc(F)c(N3CCN(Cc4nc5ccccc5n4Cc4cccc(F)c4)CC3)cc21	4 (≈ 7.17 µM)
O=C(O)c1cn(C2CC2)c2cc(N3CCN(CNc4nc5ccccc5[nH]4)CC3)c(F)cc2c1=O	1 (≈ 2.1 µM)

Tested on: Saccharomyces cerevisiae
Test: Antifungal activity against Saccharomyces cerevisiae ATCC 9763 after 24 hrs by micro broth dilution method
Assay type: functional
Settings: ATCC 9763, 24 h

SMILES	MIC80 [µg/mL]
CCn1cc(C(=O)O)c(=O)c2cc(F)c(N3CCN(Cc4nc5ccccc5n4Cc4ccccc4F)CC3)cc21	512 (≈ 918 µM)
CCCCCCCCn1c(CN2CCN(c3cc4c(cc3F)c(=O)c(C(=O)O)cn4CC)CC2)nc2ccccc21	4 (≈ 7.12 µM)
CCn1cc(C(=O)O)c(=O)c2cc(F)c(N3CCN(Cc4nc5ccccc5n4Cc4cccc(F)c4)CC3)cc21	2 (≈ 3.59 µM)
O=C(O)c1cn(C2CC2)c2cc(N3CCN(CNc4nc5ccccc5[nH]4)CC3)c(F)cc2c1=O	4 (≈ 8.39 µM)

Tested on: Escherichia coli
Test: Antibacterial activity against Escherichia coli JM109 by micro broth dilution method
Assay type: functional
Settings: not given

SMILES	MIC [µg/mL]
CCn1cc(C(=O)O)c(=O)c2cc(F)c(N3CCN(Cc4nc5ccccc5n4Cc4ccccc4F)CC3)cc21	512 (≈ 918 µM)
CCCCCCCCn1c(CN2CCN(c3cc4c(cc3F)c(=O)c(C(=O)O)cn4CC)CC2)nc2ccccc21	32 (≈ 57 µM)
CCn1cc(C(=O)O)c(=O)c2cc(F)c(N3CCN(Cc4nc5ccccc5n4Cc4cccc(F)c4)CC3)cc21	128 (≈ 230 µM)
O=C(O)c1cn(C2CC2)c2cc(N3CCN(CNc4nc5ccccc5[nH]4)CC3)c(F)cc2c1=O	4 (≈ 8.39 µM)

Tested on: Candida albicans
Test: Antifungal activity against Candida albicans ATCC 10231 after 24 hrs by micro broth dilution method
Assay type: functional
Settings: ATCC 10231, 24 h

SMILES	MIC80 [µg/mL]
CCn1cc(C(=O)O)c(=O)c2cc(F)c(N3CCN(Cc4nc5ccccc5n4Cc4ccccc4F)CC3)cc21	512 (≈ 918 µM)
CCCCCCCCn1c(CN2CCN(c3cc4c(cc3F)c(=O)c(C(=O)O)cn4CC)CC2)nc2ccccc21	8 (≈ 14.2 µM)
CCn1cc(C(=O)O)c(=O)c2cc(F)c(N3CCN(Cc4nc5ccccc5n4Cc4cccc(F)c4)CC3)cc21	64 (≈ 115 µM)
O=C(O)c1cn(C2CC2)c2cc(N3CCN(CNc4nc5ccccc5[nH]4)CC3)c(F)cc2c1=O	1 (≈ 2.1 µM)

Tested on: Escherichia coli
Test: Antibacterial activity against Escherichia coli DH52 by micro broth dilution method
Assay type: functional
Settings: not given

SMILES	MIC [µg/mL]
CCn1cc(C(=O)O)c(=O)c2cc(F)c(N3CCN(Cc4nc5ccccc5n4Cc4ccccc4F)CC3)cc21	512 (≈ 918 µM)
CCCCCCCCn1c(CN2CCN(c3cc4c(cc3F)c(=O)c(C(=O)O)cn4CC)CC2)nc2ccccc21	8 (≈ 14.2 µM)
CCn1cc(C(=O)O)c(=O)c2cc(F)c(N3CCN(Cc4nc5ccccc5n4Cc4cccc(F)c4)CC3)cc21	128 (≈ 230 µM)
O=C(O)c1cn(C2CC2)c2cc(N3CCN(CNc4nc5ccccc5[nH]4)CC3)c(F)cc2c1=O	1 (≈ 2.1 µM)

Tested on: Salmonella enterica
Test: Antibacterial activity against Salmonella enterica ATCC 14028 by micro broth dilution method
Assay type: functional
Settings: not given

SMILES	MIC [µg/mL]
CCn1cc(C(=O)O)c(=O)c2cc(F)c(N3CCN(Cc4nc5ccccc5n4Cc4ccccc4F)CC3)cc21	512 (≈ 918 µM)
CCCCCCCCn1c(CN2CCN(c3cc4c(cc3F)c(=O)c(C(=O)O)cn4CC)CC2)nc2ccccc21	4 (≈ 7.12 µM)
CCn1cc(C(=O)O)c(=O)c2cc(F)c(N3CCN(Cc4nc5ccccc5n4Cc4cccc(F)c4)CC3)cc21	8 (≈ 14.3 µM)
O=C(O)c1cn(C2CC2)c2cc(N3CCN(CNc4nc5ccccc5[nH]4)CC3)c(F)cc2c1=O	1 (≈ 2.1 µM)

Tested on: Bacillus spizizenii
Test: Antibacterial activity against Bacillus subtilis ATCC 6633 by micro broth dilution method
Assay type: functional
Settings: not given

SMILES	MIC [µg/mL]
CCn1cc(C(=O)O)c(=O)c2cc(F)c(N3CCN(Cc4nc5ccccc5n4Cc4ccccc4F)CC3)cc21	128 (≈ 230 µM)
CCCCCCCCn1c(CN2CCN(c3cc4c(cc3F)c(=O)c(C(=O)O)cn4CC)CC2)nc2ccccc21	32 (≈ 57 µM)
CCn1cc(C(=O)O)c(=O)c2cc(F)c(N3CCN(Cc4nc5ccccc5n4Cc4cccc(F)c4)CC3)cc21	128 (≈ 230 µM)
O=C(O)c1cn(C2CC2)c2cc(N3CCN(CNc4nc5ccccc5[nH]4)CC3)c(F)cc2c1=O	1 (≈ 2.1 µM)

Tested on: Micrococcus luteus
Test: Antibacterial activity against Micrococcus luteus ATCC 4698 by micro broth dilution method
Assay type: functional
Settings: NCTC 2665

SMILES	MIC [µg/mL]
CCn1cc(C(=O)O)c(=O)c2cc(F)c(N3CCN(Cc4nc5ccccc5n4Cc4ccccc4F)CC3)cc21	512 (≈ 918 µM)
CCCCCCCCn1c(CN2CCN(c3cc4c(cc3F)c(=O)c(C(=O)O)cn4CC)CC2)nc2ccccc21	4 (≈ 7.12 µM)
CCn1cc(C(=O)O)c(=O)c2cc(F)c(N3CCN(Cc4nc5ccccc5n4Cc4cccc(F)c4)CC3)cc21	64 (≈ 115 µM)
O=C(O)c1cn(C2CC2)c2cc(N3CCN(CNc4nc5ccccc5[nH]4)CC3)c(F)cc2c1=O	1 (≈ 2.1 µM)

Tested on: not listed separately
Test: Antifungal activity against Candida mycoderma ATCC 9888 after 24 hrs by micro broth dilution method
Assay type: functional
Settings: Candida vini

SMILES	MIC80 [µg/mL]
CCn1cc(C(=O)O)c(=O)c2cc(F)c(N3CCN(Cc4nc5ccccc5n4Cc4ccccc4F)CC3)cc21	512 (≈ 918 µM)
CCCCCCCCn1c(CN2CCN(c3cc4c(cc3F)c(=O)c(C(=O)O)cn4CC)CC2)nc2ccccc21	2 (≈ 3.56 µM)
CCn1cc(C(=O)O)c(=O)c2cc(F)c(N3CCN(Cc4nc5ccccc5n4Cc4cccc(F)c4)CC3)cc21	64 (≈ 115 µM)
O=C(O)c1cn(C2CC2)c2cc(N3CCN(CNc4nc5ccccc5[nH]4)CC3)c(F)cc2c1=O	0.5 (≈ 1.05 µM)

Tested on: Shigella dysenteriae
Test: Antibacterial activity against Shigella dysenteriae by micro broth dilution method
Assay type: functional
Settings: not given

SMILES	MIC [µg/mL]
CCn1cc(C(=O)O)c(=O)c2cc(F)c(N3CCN(Cc4nc5ccccc5n4Cc4ccccc4F)CC3)cc21	512 (≈ 918 µM)
CCCCCCCCn1c(CN2CCN(c3cc4c(cc3F)c(=O)c(C(=O)O)cn4CC)CC2)nc2ccccc21	16 (≈ 28.5 µM)
CCn1cc(C(=O)O)c(=O)c2cc(F)c(N3CCN(Cc4nc5ccccc5n4Cc4cccc(F)c4)CC3)cc21	1 (≈ 1.79 µM)
O=C(O)c1cn(C2CC2)c2cc(N3CCN(CNc4nc5ccccc5[nH]4)CC3)c(F)cc2c1=O	0.25 (≈ 0.525 µM)

Tested on: Staphylococcus aureus
Test: Antibacterial activity against methicillin-resistant Staphylococcus aureus N315 by micro broth dilution method
Assay type: functional
Settings: not given

SMILES	MIC [µg/mL]
CCn1cc(C(=O)O)c(=O)c2cc(F)c(N3CCN(Cc4nc5ccccc5n4Cc4ccccc4F)CC3)cc21	256 (≈ 459 µM)
CCCCCCCCn1c(CN2CCN(c3cc4c(cc3F)c(=O)c(C(=O)O)cn4CC)CC2)nc2ccccc21	2 (≈ 3.56 µM)
CCn1cc(C(=O)O)c(=O)c2cc(F)c(N3CCN(Cc4nc5ccccc5n4Cc4cccc(F)c4)CC3)cc21	32 (≈ 57.4 µM)
O=C(O)c1cn(C2CC2)c2cc(N3CCN(CNc4nc5ccccc5[nH]4)CC3)c(F)cc2c1=O	0.25 (≈ 0.525 µM)

From ChEMBL document CHEMBL3769303, “Discovery of membrane active benzimidazole quinolones-based topoisomerase inhibitors as potential DNA-binding antimicrobial agents” (Eur J Med Chem, 2016)
